According to ChEMBL document CHEMBL4665709, “Rational Avoidance of Protease Cleavage Sites and Symmetrical End-Tagging Significantly Enhances the Stability and Therapeutic Potential of Antimicrobial Peptides” (J Med Chem, 2020):
Where a SMILES comes first, the peptide text is derived from it.

How the values were obtained:
[1] = Therapeutic index, ratio of MHC for human RBC to geometric mean of peptide MIC for Salmonella choleraesuis 503; assay type: toxicity; settings: human red blood cells (RBC), read-out: TI
Staphylococcus aureus [2] = test: Antibacterial activity against Staphylococcus aureus ATCC 29213 after 18 to 24 hrs in presence of 4.5 mM K+ by CLSI-based broth microdilution method; assay type: functional; settings: time hrs 18-24
Escherichia coli [3] = test: Antibacterial activity against Escherichia coli ATCC 25922 after 18 to 24 hrs in presence of 6 uM Fe3+ by CLSI-based broth microdilution method; assay type: functional; settings: time hrs 18-24
[4] = Therapeutic index, ratio of MHC for human RBC to geometric mean of peptide MIC for methicillin-resistant Staphylococcus aureus 43300; assay type: toxicity; settings: human red blood cells (RBC), read-out: TI
[5] = Therapeutic index, ratio of MHC for human RBC to geometric mean of peptide MIC for Salmonella typhimurium 7731; assay type: toxicity; settings: human red blood cells (RBC), read-out: TI
[6] = Therapeutic index, ratio of MHC for human RBC to geometric mean of peptide MIC for Staphylococcus aureus ATCC 29213; assay type: toxicity; settings: human red blood cells (RBC), read-out: TI
[7] = Therapeutic index, ratio of MHC for human RBC to geometric mean of peptide MIC for Enterococcus faecalis ATCC 29212; assay type: toxicity; settings: human red blood cells (RBC), read-out: TI
[8] = Hemolytic activity in human RBC assessed as hemolysis at 1 to 128 uM relative to control; assay type: ADME, cell-based, Erythrocyte; settings: human red blood cells (RBC), dose 1-128 µM, read-out: Activity
Staphylococcus aureus [9] = test: Antibacterial activity against Staphylococcus aureus ATCC 29213 after 18 to 24 hrs in presence of 50% human serum by CLSI-based broth microdilution method; assay type: functional; settings: time hrs 18-24
[10] = Therapeutic index, ratio of MHC for human RBC to geometric mean of peptide MIC for Salmonella typhimurium 14028; assay type: toxicity; settings: human red blood cells (RBC), read-out: TI
[11] = Cytotoxicity against HEK-293T cells assessed as cell viability at 128 uM by MTT assay relative to control; assay type: cell-based; settings: human, read-out: Activity
Staphylococcus aureus [12] = test: Antibacterial activity against Staphylococcus aureus ATCC 29213 after 18 to 24 hrs in presence of 100% human serum by CLSI-based broth microdilution method; assay type: functional; settings: time hrs 18-24
Escherichia coli [13] = test: Antibacterial activity against Escherichia coli UB1005 after 18 to 24 hrs by CLSI-based broth microdilution method; assay type: functional; settings: time hrs 18-24
Escherichia coli [14] = test: Antibacterial activity against Escherichia coli ATCC 25922 after 18 to 24 hrs in presence of 25% human serum by CLSI-based broth microdilution method; assay type: functional; settings: time hrs 18-24
Staphylococcus aureus [15] = test: Antibacterial activity against Staphylococcus aureus ATCC 29213 after 18 to 24 hrs by CLSI-based broth microdilution method; assay type: functional; settings: time hrs 18-24
[16] = Cytotoxicity against mouse RAW264.7 cells assessed as cell viability at 128 uM by MTT assay relative to control; assay type: cell-based; settings: read-out: Activity
Escherichia coli [17] = test: Antibacterial activity against Escherichia coli ATCC 25922 after 18 to 24 hrs in presence of 1 mM Mg2+ by CLSI-based broth microdilution method; assay type: functional; settings: time hrs 18-24
Escherichia coli [18] = test: Antibacterial activity against Escherichia coli ATCC 25922 after 18 to 24 hrs in presence of 8 uM Zn2+ by CLSI-based broth microdilution method; assay type: functional; settings: time hrs 18-24
Salmonella typhimurium [19] = test: Antibacterial activity against Salmonella typhimurium 7731 after 18 to 24 hrs by CLSI-based broth microdilution method; assay type: functional, Salmonella enterica subsp. enterica serovar Typhimurium; settings: Salmonella enterica, time hrs 18-24
Enterococcus faecalis = test: Antibacterial activity against Enterococcus faecalis ATCC 29212 after 18 to 24 hrs by CLSI-based broth microdilution method; assay type: functional; settings: time hrs 18-24
Escherichia coli [20] = test: Antibacterial activity against Escherichia coli ATCC 25922 after 18 to 24 hrs by CLSI-based broth microdilution method; assay type: functional; settings: time hrs 18-24
Escherichia coli [21] = test: Antibacterial activity against Escherichia coli ATCC 25922 after 18 to 24 hrs in presence of 150 mM Na+ by CLSI-based broth microdilution method; assay type: functional; settings: time hrs 18-24
Streptococcus agalactiae = test: Antibacterial activity against Streptococcus agalactiae H92 after 18 to 24 hrs by CLSI-based broth microdilution method; assay type: functional; settings: time hrs 18-24
Staphylococcus aureus [22] = test: Antibacterial activity against Staphylococcus aureus ATCC 29213 after 18 to 24 hrs in presence of 8 uM Zn2+ by CLSI-based broth microdilution method; assay type: functional; settings: time hrs 18-24
Staphylococcus aureus [23] = test: Antibacterial activity against methicillin-resistant Staphylococcus aureus 43300 after 18 to 24 hrs by CLSI-based broth microdilution method; assay type: functional; settings: time hrs 18-24
Escherichia coli [24] = test: Antibacterial activity against Escherichia coli ATCC 25922 after 18 to 24 hrs in presence of 6 uM NH4+ by CLSI-based broth microdilution method; assay type: functional; settings: time hrs 18-24
[25] = Stability of compound at 100 degreeC after 30 to 90 mins; assay type: physicochemical; settings: time 30-90 min
Erythrocyte = test: Hemolytic activity in human RBC assessed as hemolysis; assay type: ADME, cell-based
[26] = Therapeutic index, ratio of MHC for human RBC to geometric mean of peptide MIC for Escherichia coli UB1005; assay type: toxicity; settings: human red blood cells (RBC), read-out: TI
[27] = Therapeutic index, ratio of MHC for human RBC to geometric mean of peptide MIC for Streptococcus agalactiae H92; assay type: toxicity; settings: human red blood cells (RBC), read-out: TI
[28] = Therapeutic index, ratio of MHC for human RBC to geometric mean of peptide MIC for Staphylococcus epidermidis ATCC 12228; assay type: toxicity; settings: human red blood cells (RBC), read-out: TI
Salmonella enterica = test: Antibacterial activity against Salmonella choleraesuis 503 after 18 to 24 hrs by CLSI-based broth microdilution method; assay type: functional; settings: time hrs 18-24
Staphylococcus aureus [29] = test: Antibacterial activity against Staphylococcus aureus ATCC 29213 after 18 to 24 hrs in presence of 6 uM Fe3+ by CLSI-based broth microdilution method; assay type: functional; settings: time hrs 18-24
Escherichia coli [30] = test: Antibacterial activity against Escherichia coli ATCC 25922 after 18 to 24 hrs in presence of 50% human serum by CLSI-based broth microdilution method; assay type: functional; settings: time hrs 18-24
Staphylococcus aureus [31] = test: Antibacterial activity against Staphylococcus aureus ATCC 29213 after 18 to 24 hrs in presence of 6 uM NH4+ by CLSI-based broth microdilution method; assay type: functional; settings: time hrs 18-24
Staphylococcus aureus [32] = test: Antibacterial activity against Staphylococcus aureus 11011 after 18 to 24 hrs by CLSI-based broth microdilution method; assay type: functional; settings: time hrs 18-24
Escherichia coli [33] = test: Antibacterial activity against Escherichia coli ATCC 25922 after 18 to 24 hrs in presence of 100% human serum by CLSI-based broth microdilution method; assay type: functional; settings: time hrs 18-24
[34] = Therapeutic index, ratio of MHC for human RBC to geometric mean of peptide MIC for Salmonella pullorum 7913; assay type: toxicity; settings: human red blood cells (RBC), read-out: TI
Staphylococcus aureus [35] = test: Antibacterial activity against Staphylococcus aureus ATCC 29213 after 18 to 24 hrs in presence of 150 mM Na+ by CLSI-based broth microdilution method; assay type: functional; settings: time hrs 18-24
Escherichia coli [36] = test: Antibacterial activity against Escherichia coli ATCC 25922 after 18 to 24 hrs in presence of 4.5 mM K+ by CLSI-based broth microdilution method; assay type: functional; settings: time hrs 18-24
Salmonella typhimurium [37] = test: Antibacterial activity against Salmonella typhimurium 14028 after 18 to 24 hrs by CLSI-based broth microdilution method; assay type: functional, Salmonella enterica subsp. enterica serovar Typhimurium; settings: Salmonella enterica, time hrs 18-24
[38] = tested on: Staphylococcus epidermidis; test: Antibacterial activity against Staphylococcus epidermidis ATCC 12228 after 18 to 24 hrs by CLSI-based broth microdilution method; assay type: functional; settings: time hrs 18-24
[39] = Antibacterial activity against Salmonella pullorum 7913 after 18 to 24 hrs by CLSI-based broth microdilution method; assay type: functional, Salmonella enterica subsp. enterica serovar Pullorum; settings: Salmonella enterica, time hrs 18-24
[40] = Therapeutic index, ratio of MHC for human RBC to geometric mean of peptide MIC for Escherichia coli ATCC 25922; assay type: toxicity; settings: human red blood cells (RBC), read-out: TI
[41] = Therapeutic index, ratio of MHC for human RBC to geometric mean of peptide MIC for Staphylococcus aureus 11011; assay type: toxicity; settings: human red blood cells (RBC), read-out: TI
Staphylococcus aureus [42] = test: Antibacterial activity against Staphylococcus aureus ATCC 29213 after 18 to 24 hrs in presence of 25% human serum by CLSI-based broth microdilution method; assay type: functional; settings: time hrs 18-24
Staphylococcus aureus [43] = test: Antibacterial activity against Staphylococcus aureus ATCC 29213 after 18 to 24 hrs in presence of 1 mM Mg2+ by CLSI-based broth microdilution method; assay type: functional; settings: time hrs 18-24

CC[C@H](C)[C@H](N)C(=O)N[C@H](C(=O)N[C@@H](CS)C(=O)N[C@@H](CCCNC(=N)N)C(=O)N[C@@H](CCCCN)C(=O)N1CCC[C@H]1C(=O)N[C@H](C(=O)N[C@H](C(=O)N[C@@H](CS)C(=O)N[C@@H](CCCNC(=N)N)C(=O)N[C@@H](CCCCN)C(=O)N1CCC[C@H]1C(=O)N[C@H](C(=O)N[C@H](C(=O)N[C@@H](CS)C(=O)N[C@@H](CCCNC(=N)N)C(=O)N[C@@H](CCCCN)C(=O)N1CCC[C@H]1C(=O)N[C@H](C(=O)N[C@H](C(=O)N[C@@H](CS)C(=O)N[C@@H](CCCNC(=N)N)C(=O)N[C@@H](CCCCN)C(=O)N1CCC[C@H]1C(=O)N[C@H](C(=O)N[C@H](C(N)=O)[C@@H](C)CC)[C@@H](C)CC)[C@@H](C)CC)[C@@H](C)CC)[C@@H](C)CC)[C@@H](C)CC)[C@@H](C)CC)[C@@H](C)CC)[C@@H](C)CC (H-IICRKPIICRKPIICRKPIICRKPII-NH2)
4 µM: MIC (Escherichia coli [14]) | MIC (Salmonella enterica) | MIC (Escherichia coli [30])
16 µM: MIC (Streptococcus agalactiae) | MIC (Staphylococcus aureus [23]) | MIC (Staphylococcus aureus [32]) | MIC (Escherichia coli [33]) | MIC [38]
64 µM: MIC (Staphylococcus aureus [2]) | MIC (Staphylococcus aureus [9]) | MIC (Staphylococcus aureus [12]) | MIC (Staphylococcus aureus [35]) | MIC (Staphylococcus aureus [42]) | MIC (Staphylococcus aureus [43])
2 µM: MIC (Escherichia coli [3]) | MIC (Escherichia coli [18]) | MIC (Salmonella typhimurium [19]) | MIC (Escherichia coli [20]) | MIC (Escherichia coli [24]) | MIC (Escherichia coli [36]) | MIC (Salmonella typhimurium [37])
< 5%: hemolysis at up to 128 µM [8]
6.35: selectivity ratio [4] | selectivity ratio [6] | selectivity ratio [7] | selectivity ratio [27] | selectivity ratio [28] | selectivity ratio [41]
Stable: Stabilty [25]
32 µM: MIC (Staphylococcus aureus [15]) | MIC (Enterococcus faecalis) | MIC (Staphylococcus aureus [22]) | MIC (Staphylococcus aureus [29]) | MIC (Staphylococcus aureus [31])
1 µM: MIC (Escherichia coli [13])
> 128 µM: MHC (Erythrocyte)
8 µM: MIC (Escherichia coli [17]) | MIC (Escherichia coli [21]) | MIC [39]
50.8: selectivity ratio [1] | selectivity ratio [5] | selectivity ratio [10] | selectivity ratio [26] | selectivity ratio [34] | selectivity ratio [40]
> 90%: viability at 128 µM [11] | viability at 128 µM [16]

CC[C@H](C)[C@H](N)C(=O)N[C@H](C(=O)N[C@@H](CS)C(=O)N[C@@H](CCCNC(=N)N)C(=O)N[C@@H](CCCCN)C(=O)N1CCC[C@H]1C(=O)N[C@H](C(=O)N[C@H](C(=O)N[C@@H](CS)C(=O)N[C@@H](CCCNC(=N)N)C(=O)N[C@@H](CCCCN)C(=O)N1CCC[C@H]1C(=O)N[C@H](C(=O)N[C@H](C(=O)N[C@@H](CS)C(=O)N[C@@H](CCCNC(=N)N)C(=O)N[C@@H](CCCCN)C(=O)N1CCC[C@H]1C(=O)N[C@H](C(=O)N[C@H](C(=O)N[C@@H](CS)C(=O)N[C@@H](CCCNC(=N)N)C(=O)N[C@@H](CCCCN)C(=O)N1CCC[C@H]1C(=O)N[C@H](C(=O)N[C@H](C(=O)N[C@@H](CS)C(=O)N[C@@H](CCCNC(=N)N)C(=O)N[C@@H](CCCCN)C(=O)N1CCC[C@H]1C(=O)N[C@H](C(=O)N[C@H](C(N)=O)[C@@H](C)CC)[C@@H](C)CC)[C@@H](C)CC)[C@@H](C)CC)[C@@H](C)CC)[C@@H](C)CC)[C@@H](C)CC)[C@@H](C)CC)[C@@H](C)CC)[C@@H](C)CC)[C@@H](C)CC (H-IICRKPIICRKPIICRKPIICRKPIICRKPII-NH2)
2 µM: MIC (Escherichia coli [13]) | MIC (Salmonella typhimurium [19]) | MIC (Escherichia coli [20])
2: selectivity ratio [4] | selectivity ratio [6] | selectivity ratio [7] | selectivity ratio [27] | selectivity ratio [28] | selectivity ratio [41]
> 90%: viability at 128 µM [11] | viability at 128 µM [16]
> 64 µM: MIC (Staphylococcus aureus [15]) | MIC (Enterococcus faecalis) | MIC (Streptococcus agalactiae) | MIC (Staphylococcus aureus [32])
4 µM: MIC (Salmonella enterica) | MIC (Salmonella typhimurium [37])
64 µM: MIC (Staphylococcus aureus [23]) | MIC [38]
> 128 µM: MHC (Erythrocyte)
< 5%: hemolysis at up to 128 µM [8]
8 µM: MIC [39]
40.3: selectivity ratio [1] | selectivity ratio [5] | selectivity ratio [10] | selectivity ratio [26] | selectivity ratio [34] | selectivity ratio [40]
